Experimental data published in PubChem BioAssay (NCI).
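Where inhibition never reached the appropriate level, the endpoint shown equals the highest concentration tested. Otherwise, values were interpolated linearly from a five-concentration, 48-hour dose response in 96-well plates. At the TGI there is no net growth.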

Assays:
Assay in all cases: growth of human tumour cells (NCI), 48 h
A549 NSCLC = system: A549 NSCLC
SF-295 CNS = system: SF-295 CNS
HS 578T breast = system: HS 578T breast
BT-549 breast = system: BT-549 breast
786-0 renal = system: 786-0 renal
NCI/ADR-RES ovarian = system: NCI/ADR-RES ovarian
MALME-3M melanoma = system: MALME-3M melanoma
HOP-62 NSCLC = system: HOP-62 NSCLC
SF-539 CNS = system: SF-539 CNS
PC-3 prostate = system: PC-3 prostate
OVCAR-3 ovarian = system: OVCAR-3 ovarian
HOP-92 NSCLC = system: HOP-92 NSCLC
KM12 colon = system: KM12 colon
HCT-15 colon = system: HCT-15 colon
OVCAR-5 ovarian = system: OVCAR-5 ovarian
SK-OV-3 ovarian = system: SK-OV-3 ovarian
SNB-19 CNS = system: SNB-19 CNS
OVCAR-8 ovarian = system: OVCAR-8 ovarian

SMILES	TGI (A549 NSCLC) [µM]	TGI (SF-295 CNS) [µM]	TGI (HS 578T breast) [µM]	TGI (BT-549 breast) [µM]	TGI (786-0 renal) [µM]	TGI (NCI/ADR-RES ovarian) [µM]	TGI (MALME-3M melanoma) [µM]	TGI (HOP-62 NSCLC) [µM]	TGI (SF-539 CNS) [µM]	TGI (PC-3 prostate) [µM]	TGI (OVCAR-3 ovarian) [µM]	TGI (HOP-92 NSCLC) [µM]	TGI (KM12 colon) [µM]	TGI (HCT-15 colon) [µM]	TGI (OVCAR-5 ovarian) [µM]	TGI (SK-OV-3 ovarian) [µM]	TGI (SNB-19 CNS) [µM]	TGI (OVCAR-8 ovarian) [µM]
OCC1OC(NC(=S)NCSCCC(F)(F)C(F)(F)C(F)(F)C(F)(F)C(F)(F)C(F)(F)F)C(O)C(O)C1O (centres undefined)	> 100	60.5	> 100	> 100	> 100	> 100	> 100	> 100	47.2	> 100	> 100	66.4	> 100	> 100	> 100	> 100	> 100	
CC(=O)NC1C(OCc2ccccc2)OC(CO)C(O)C1OC(C)C(=O)NC(C(=O)NC(CCC(=O)Nc1ccc2c(c1)CN1C(=O)c3ccccc3C1=N2)C(N)=O)C(C)C (centres undefined)	> 100	> 100	> 100	> 100	> 100	> 100	> 100	> 100	> 100	> 100	> 100	> 100	> 100	> 100	> 100	> 100	> 100	> 100
COc1ccc(N=C/C=C/C(=C/COC(C)=O)OC(C)=O)cc1	> 100	> 100	> 100	> 100	90	> 100	69.5	> 100	> 100	> 100	> 100	57.4	> 100	> 100	> 100	> 100	> 100	> 100
Nc1nc(Cl)c(N)c(NCC2(CO)CC(O)C2)n1 (centres undefined)	> 100	> 100	> 100	> 100	> 100	> 100	> 100	> 100	> 100	> 100	> 100	> 100	> 100	> 100	> 100	> 100	> 100	> 100
CC(C)=CCc1c(O)c(CC=C(C)C)c2oc3c(c(=O)c2c1O)C(C=C(C)C)Oc1cc(O)ccc1-3 (centres undefined)	20.6	19.2	43.8	25	19.5	38.4	37	31	25.5	14.4	14.8	28.3	11.6	19.1	33.1	29	24.2	24.4
COC(=O)c1c(OC(C)=O)ccc2c1c1c(n2Cc2ccccc2)C(=O)c2ccccc2C1=O	83.9	38.5	48.3	48.5	52.4	61.6	50.7	44.5	33.7	59.8	36.3	39.8	47.4	41.9	41.3	66.9	97.1	89.1
O=C(CN1c2ccccc2Sc2ccccc21)n1cnc2ccccc21	> 100	> 100	> 100	> 100	> 100	> 100	> 100	> 100	> 100	> 100	> 100	93.9	> 100	> 100	> 100	> 100	> 100	> 100
NC(=S)NS(=O)(=O)c1ccc(F)cc1	> 100	> 100	> 100	> 100	> 100	> 100	> 100	> 100	> 100	> 100	> 100	> 100	> 100	> 100	> 100	> 100	> 100	> 100
CCCCC[C@H]1CC=CC(=O)O1	60.5	37.1	50.6	20.3	13.3	27.1	33.9	45.3	4.82	69.3	21.9	53.3	13.9	20.9	70	39.7	28.2	24.8
c1cc(-c2ccc(Oc3ccc(-c4ccncc4)cc3)cc2)ccn1	> 100	> 100	> 69.9	> 59.7	> 100	> 90.9	> 44	> 100	> 100	> 100	> 61.8	> 88.6	> 27.4	96.9	> 100	> 100	> 100	> 100
